Source: patent US7897582B2, “Oligonucleotide compositions and methods for the modulation of the expression of B7 protein” (Isis Pharmaceuticals, Inc., priority 2003, dated 2011)
Strand notation (5' to 3'): a small letter for the sugar, then the base; units joined by * are phosphorothioate-linked, units joined directly phosphodiester-linked; [ ] holds rarer units or linkages, { } end groups; capitals alone tell only the bases. e = 2'-O-(2-methoxyethyl) (MOE); [5mC] = 5-methylcytosine; d = 2'-deoxy (DNA)

Tested on: human B7.2 mRNA
Assay: Human B7.2 mRNA levels in THP-1 cells by quantitative real-time PCR (Example 27)
Type: cell-based
Design: concentration or dose not given beside the values
Text: In accordance with the present invention, an additional series of antisense compounds were designed to target different regions of the human B7.2 RNA, using published sequences (GenBank accession number U04343.1, incorporated herein as SEQ ID NO: 295, GenBank accession number BC040261.1, incorporated herein as SEQ ID NO: 296 and GenBank accession number NT—005543.12, a portion of which is incorporated herein as SEQ ID NO: 297). “Target site” indicates the first (5′-most) nucleotide number on the particular target sequence to which the compound binds. All compounds in Table 25 are chimeric oligonucleotides (“gapmers”) 20 nucleotides in length, composed of a central “gap” region consisting of ten 2′-deoxynucleotides, which is flanked on both sides (5′ and 3′ directions) by five-nucleotide “wings”. The wings are composed of 2′-methoxyethyl (2′-MOE)nucleotides. The internucleoside (backbone) linkages are phosphorothioate (P═S) throughout the oligonucleotide. All cytidine residues are 5-methylcytidines. The compounds were analyzed for their effect on human B7.2 mRNA levels in THP-1 cells by quantitative real-time PCR as described in other examples herein. Data are averages from three experiments. If present, “N.D.” indicates “no data”.

Substance	% INHIB (inhibition of human B7.2 mRNA levels) [%]
323631 (antisense eA*eG*eT*e[5mC]*eT*d[5mC]*dA*dT*dT*dG*dA*dA*dA*dT*dA*eA*eG*e[5mC]*eT*eT) [compound 323631]	56
323632 (antisense eA*eG*eG*eT*e[5mC]*dT*dG*d[5mC]*dA*dG*dT*d[5mC]*dT*d[5mC]*dA*eT*eT*eG*eA*eA) [compound 323632]	41
323633 (antisense e[5mC]*eT*eA*e[5mC]*eT*dA*dG*d[5mC]*dT*d[5mC]*dA*d[5mC]*dT*d[5mC]*dA*eG*eG*e[5mC]*eT*eT) [compound 323633]	50
323634 (antisense eA*eA*eA*eT*eA*d[5mC]*dT*dA*d[5mC]*dT*dA*dG*d[5mC]*dT*d[5mC]*eA*e[5mC]*eT*e[5mC]*eA) [compound 323634]	30
323635 (antisense e[5mC]*eT*eG*e[5mC]*e[5mC]*dA*dA*dA*dA*dT*dA*d[5mC]*dT*dA*d[5mC]*eT*eA*eG*e[5mC]*eT) [compound 323635]	24
323636 (antisense eT*eT*e[5mC]*eA*eG*dA*dA*d[5mC]*d[5mC]*dA*dA*dG*dT*dT*dT*eT*e[5mC]*e[5mC]*eT*eG) [compound 323636]	23
323637 (antisense e[5mC]*e[5mC]*eT*e[5mC]*eA*dT*dT*d[5mC]*dA*dG*dA*dA*d[5mC]*d[5mC]*dA*eA*eG*eT*eT*eT) [compound 323637]	19
323638 (antisense eG*eT*eA*eT*eA*d[5mC]*d[5mC]*dT*d[5mC]*dA*dT*dT*d[5mC]*dA*dG*eA*eA*e[5mC]*e[5mC]*eA) [compound 323638]	20
323639 (antisense eG*e[5mC]*e[5mC]*eT*eA*dA*dG*dT*dA*dT*dA*d[5mC]*d[5mC]*dT*d[5mC]*eA*eT*eT*e[5mC]*eA) [compound 323639]	55
323640 (antisense e[5mC]*eT*e[5mC]*eT*eT*dT*dG*d[5mC]*d[5mC]*dT*dA*dA*dG*dT*dA*eT*eA*e[5mC]*e[5mC]*eT) [compound 323640]	28
323641 (antisense e[5mC]*e[5mC]*e[5mC]*eA*eT*dA*dT*dA*d[5mC]*dT*dT*dG*dG*dA*dA*eT*eG*eA*eA*e[5mC]) [compound 323641]	88
323642 (antisense e[5mC]*eT*eT*eG*eT*dG*d[5mC]*dG*dG*d[5mC]*d[5mC]*d[5mC]*dA*dT*dA*eT*eA*e[5mC]*eT*eT) [compound 323642]	27
323643 (antisense eA*eT*e[5mC]*eA*eA*dA*dA*d[5mC]*dT*dT*dG*dT*dG*d[5mC]*dG*eG*e[5mC]*e[5mC]*e[5mC]*eA) [compound 323643]	80
323644 (antisense e[5mC]*e[5mC]*e[5mC]*eT*eT*dG*dT*d[5mC]*d[5mC]*dT*dT*dG*dA*dT*d[5mC]*eT*eG*eA*eA*eG) [compound 323644]	71
323645 (antisense eA*e[5mC]*eA*eA*eG*d[5mC]*d[5mC]*d[5mC]*dT*dT*dG*dT*d[5mC]*d[5mC]*dT*eT*eG*eA*eT*e[5mC]) [compound 323645]	56
323646 (antisense eT*eT*eG*eA*eT*dA*d[5mC]*dA*dA*dG*d[5mC]*d[5mC]*d[5mC]*dT*dT*eG*eT*e[5mC]*e[5mC]*eT) [compound 323646]	33
323647 (antisense eA*eT*eA*e[5mC]*eA*dT*dT*dG*dA*dT*dA*d[5mC]*dA*dA*dG*e[5mC]*e[5mC]*e[5mC]*eT*eT) [compound 323647]	41
323648 (antisense eT*eG*eG*eA*eT*dG*dA*dT*dA*d[5mC]*dA*dT*dT*dG*dA*eT*eA*e[5mC]*eA*eA) [compound 323648]	31
323649 (antisense eG*eA*eA*eT*eT*d[5mC]*dA*dT*d[5mC]*dT*dG*dG*dT*dG*dG*eA*eT*eG*e[5mC]*eG) [compound 323649]	81
323650 (antisense eG*eT*eT*e[5mC]*eA*dG*dA*dA*dT*dT*d[5mC]*dA*dT*d[5mC]*dT*eG*eG*eT*eG*eG) [compound 323650]	92
